Laboratory results from the NIST ThermoML archive (doi:10.1016/j.jct.2017.08.025).
Several values for one entry are separate records, joined by “and”; a condition that tells them apart may be missing. Equal values may be shown once. Numbers after ± are expanded uncertainties.

Experiment: mn = molality of the nth substance listed, in mol/kg
Conditions: 100 kPa, Liquid; for speed of sound: Frequency=3 MHz, Single path-length method; for mass density: Vibrating tube method

CCCCn1cc[n+](C)c1.F[B-](F)(F)F [1-butyl-3-methylimidazolium tetrafluoroborate] + O
Conditions	mass density, 288.15 K [kg/m3]	mass density, 293.15 K	mass density, 298.15 K	mass density, 303.15 K	mass density, 308.15 K	speed of sound, 288.15 K [m/s]	speed of sound, 293.15 K [m/s]	speed of sound, 298.15 K [m/s]	speed of sound, 303.15 K [m/s]	speed of sound, 308.15 K [m/s]
m1 = 0.005	999.42 ± 2	998.517 ± 2 kg/m3	997.393 ± 2 kg/m3	995.982 ± 2 kg/m3	994.365 ± 2 kg/m3	1464.7 ± 4	1482.6 ± 4	1497.5 ± 4	1512.3 ± 4	1519.6 ± 4
m1 = 0.01	999.705 ± 2	998.831 ± 2 kg/m3	997.7 ± 2 kg/m3 and 997.702 ± 2 kg/m3	996.31 ± 2 kg/m3 and 996.311 ± 2 kg/m3	994.694 ± 2 kg/m3	1465.1 ± 4	1483.1 ± 4	1497.9 ± 4	1512.8 ± 4	1520.6 ± 4
m1 = 0.03	1000.86 ± 2	999.967 ± 2 kg/m3 and 999.97 ± 2 kg/m3	998.803 ± 2 kg/m3	997.512 ± 2 kg/m3 and 997.51 ± 2 kg/m3	995.895 ± 2 kg/m3	1467 ± 4	1484.9 ± 4	1499.8 ± 4	1514.6 ± 4	1522.4 ± 4
m1 = 0.05	1002 ± 2	1001 ± 2 kg/m3	999.906 ± 2 kg/m3 and 999.91 ± 2 kg/m3	998.675 ± 2 kg/m3 and 998.68 ± 2 kg/m3	996.998 ± 2 kg/m3 and 997 ± 2 kg/m3	1468.8 ± 4	1486.7 ± 4	1501.6 ± 4	1516.4 ± 4	1524.2 ± 4
